Data: article PMC7383931, “Novel Thienopyrimidine Inhibitors of Leishmania N-Myristoyltransferase with On-Target Activity in Intracellular Amastigotes” (Journal of Medicinal Chemistry, 2020)
Where “and” joins values, the source holds several entries; their conditions need not be identical. Equal entries are not always repeated. Where two headings read alike, the source gives them in different places.

Legend:
[1] = tested on: bone-marrow-derived macrophages (BMDM); test: Alamar blue-based assay, macrophage toxicity; assay type: cell-based, BALB/c mice; details: for BMDM TC50: toxicity against bone marrow derived macrophages; for Alamar Blue Assay nAUC: toxicity against bone-marrow-derived macrophages, normalized area under the curve
Experimental: . Due to the steep slope of the toxicity profile and the correspondingly low accuracy of the CC50 values, the normalized area under the curve (nAUC) was used as the toxicity parameter (Figure 6A). […].
Macrophages (BMDM) were differentiated from the bone marrow of 6–8 week old female BALB/c mice, as described previously,[37] and maintained at 37 °C and 5% CO2 in DMEM (GIBCO) supplemented with 4 mM L-glutamine (GIBCO) and 4% L929-cell-conditioned medium. BMDMs were seeded at 4.2 × 10^4 cells per well in 96-well plates and adhered for at least 4 h. Subsequently, inhibitor concentrations were added for 72 h, followed by the addition of a 1/10 volume Alamar blue (Trek Diagnostics). Fluorescence was measured after 6 h as described above.

LmNMT = molecular target: T1, LmNMT (Leishmania major, UniProt Q4Q5S8); test: CPM assay (fluorogenic NMT activity assay), LmNMT; assay type: biochemical; details: 95% confidence interval in brackets; read-out: CPM Assay, IC50 (CI95) LmNMT
T1 sequence (Q4Q5S8 1-421): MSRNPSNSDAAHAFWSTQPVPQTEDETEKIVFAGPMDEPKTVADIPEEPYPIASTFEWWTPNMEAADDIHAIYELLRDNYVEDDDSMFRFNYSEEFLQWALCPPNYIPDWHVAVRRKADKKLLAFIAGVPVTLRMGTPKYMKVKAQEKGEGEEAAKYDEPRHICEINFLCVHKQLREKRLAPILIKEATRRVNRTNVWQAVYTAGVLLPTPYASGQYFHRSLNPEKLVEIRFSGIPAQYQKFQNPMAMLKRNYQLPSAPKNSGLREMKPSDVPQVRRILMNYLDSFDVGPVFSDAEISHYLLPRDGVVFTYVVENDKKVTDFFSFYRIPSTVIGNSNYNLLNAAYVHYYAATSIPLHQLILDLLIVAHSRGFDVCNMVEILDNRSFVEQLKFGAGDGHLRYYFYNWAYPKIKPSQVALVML

LdNMT = LdNMT (Leishmania donovani, UniProt D0AB09); test: biochemical; details: 95% confidence interval in brackets
Chain of LdNMT (D0AB09 entry or part of it): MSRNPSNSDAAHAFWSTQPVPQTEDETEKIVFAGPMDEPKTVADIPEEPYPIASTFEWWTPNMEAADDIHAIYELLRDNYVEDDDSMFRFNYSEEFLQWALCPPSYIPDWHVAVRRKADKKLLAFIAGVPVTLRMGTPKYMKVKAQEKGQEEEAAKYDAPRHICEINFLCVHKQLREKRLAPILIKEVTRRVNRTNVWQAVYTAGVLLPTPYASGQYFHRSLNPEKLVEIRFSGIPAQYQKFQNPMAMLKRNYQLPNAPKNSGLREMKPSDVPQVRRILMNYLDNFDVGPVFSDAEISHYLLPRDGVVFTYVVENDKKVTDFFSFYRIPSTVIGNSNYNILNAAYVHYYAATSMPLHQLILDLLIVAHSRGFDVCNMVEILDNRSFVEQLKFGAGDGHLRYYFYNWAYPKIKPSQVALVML

[2] = tested on: NMT (protein myristoylation) in L. donovani amastigotes; assay type: cell-based; details: in-gel fluorescence, varying inhibitor concentrations
L. donovani amastigotes = test: Alamar blue-based assay, L. donovani amastigotes; assay type: cell-based; details: Leishmania donovani
HsNMTs = tested on: HsNMTs; parameters: method as in PMID 30380837; details: versus Leishmania major (Lm) NMT; cited from earlier work
[3] = tested on: intracellular amastigotes; parameters: method as in PMID 30380837; details: cited from earlier work

Row | Structure (SMILES) | BMDM TC50 [1] | Alamar Blue Assay nAUC [1] | further results
1 | CCN(C)c1nc(N(C)C2CCN(C)CC2)nc2ccsc12 [Compound 46, N^4-Ethyl-N^2,N^4-dimethyl-N^2-(1-methylpiperidin-4-yl)thieno[3,2-d]pyrimidine-2,4-diamine] | >50 µM | 1.05 | –
2 | CN(CCC#N)c1nc(N(CCCO)C2CCNCC2)nc2ccccc12 [Compound 29, 3-((2-((3-Hydroxypropyl)(piperidin-4-yl)amino)quinazolin-4-yl)(methyl)amino)propanenitrile] | – | – | IC50 (LmNMT): 15 µM and 15.3 µM
3 | CN(C)CCCN(C)c1nc(N(C)CCC#N)c2ccccc2n1 [Compound 4, 3-((2-((3-(Dimethylamino)propyl)(methyl)amino)quinazolin-4-yl)(methyl)amino)propanenitrile] | >100 µM | 1.17 | –
4 | CN(C)CCCN(C)c1nc(N(C)CCC#N)c2sccc2n1 [Compound 2, 3-((2-((3-(Dimethylamino)propyl)(methyl)amino)thieno[3,2-d]pyrimidin-4-yl)(methyl)amino)propanenitrile] | – | – | IC50 (LdNMT; read-out: CPM Assay, IC50 (CI95) LdNMT): 0.59 µM
5 | CN(C)CCCN(C)c1nc(N(C)CCC#N)c2cc(Br)ccc2n1 [Compound 56, 3-((6-Bromo-2-((3-(dimethylamino)propyl)(methyl)amino)quinazolin-4-yl)(methyl)amino)propanenitrile] | >40 µM | 1.3 and 1.28 | –
6 | CN1CCC(N(C)c2nc(N(C)CCC#N)c3ccccc3n2)C1 (stereo not shown) [Compound 26, 3-(Methyl(2-(methyl(1-methylpyrrolidin-3-yl)amino)quinazolin-4-yl)amino)propanenitrile] | >50 µM | 1.03 | effect on myristoylation [2]: significantly decreased myristoylation in a dose-dependent manner
7 | COC[C@@H]1CCCN1c1nc(N(C)C2CCN(C)CC2)nc2ccsc12 [Compound 40, (S)-4-(2-(Methoxymethyl)pyrrolidin-1-yl)-N-methyl-N-(1-methylpiperidin-4-yl)thieno[3,2-d]pyrimidin-2-amine] | >40 µM | 1.06 | –
8 | CN(C)CCCN(C)c1nc(N2CCC[C@H]2CO)c2sccc2n1 [Compound 39, (S)-(1-(2-((3-(Dimethylamino)propyl)(methyl)amino)thieno[3,2-d]pyrimidin-4-yl)pyrrolidin-2-yl)methanol] | >50 µM | 1.14 | –
9 | CN(CCC#N)c1nc(N(C)C2CCNC2)nc2cc(C(C)(C)C)sc12 (stereo not shown) [Compound 53, 3-((6-(tert-Butyl)-2-(methyl(pyrrolidin-3-yl)amino)thieno[3,2-d]pyrimidin-4-yl)(methyl)amino)propanenitrile] | >40 µM | – | –
10 | CN1CCC(N(C)c2nc(N(C)CCC#N)c3sc(C(C)(C)C)cc3n2)CC1 [Compound 50, 3-((6-(tert-Butyl)-2-(methyl(1-methylpiperidin-4-yl)amino)thieno[3,2-d]pyrimidin-4-yl)(methyl)amino)propanenitrile] | – | – | EC50 (L. donovani amastigotes; extracellular L. donovani amastigotes (Table S2), read-out: Ld Amastigotes EC50 (CI05)): 10.1 µM; EC50 (L. donovani amastigotes; intracellular L. donovani amastigotes, read-out: Alamar Blue Assay EC50 (CI95)): 10 µM
11 | CCN1CCC(N(C)c2nc(N(C)CCC#N)c3sccc3n2)CC1 [Compound 12, 3-(Methyl(2-(methyl(1-ethylpiperidin-4-yl)amino)thieno[3,2-d]pyrimidin-4-yl)amino)propanenitrile] | >50 µM | 1.05 | –
12 | CCN1CCC(N(C)c2nc(N(C)CCC#N)c3ccccc3n2)CC1 [Compound 24, 3-((2-((1-Ethylpiperidin-4-yl)(methyl)amino)quinazolin-4-yl)(methyl)amino)propanenitrile] | >50 µM | – | –
13 | Cc1nn(C)c(C)c1N(C(F)F)S(=O)(=O)c1c(Cl)cc(CCCC2CCN(C)CC2)cc1Cl [DDD100097] | – | – | selectivity over HsNMTs (HsNMTs): 10 fold; EC50 [3]: 2.4 µM
14 | CN(C)CCCN(C)c1nc(N(C)CCC#N)c2sc(C(C)(C)C)cc2n1 [Compound 51, 3-((6-(tert-Butyl)-2-((3-(dimethylamino)propyl)(methyl)amino)thieno[3,2-d]pyrimidin-4-yl)(methyl)amino)propanenitrile] | 27.3 (24.1-31.0) μM | – | –
15 | CN1CCC(N(C)c2nc(N(C)CCC#N)c3sc(C(C)(C)C)cc3n2)C1 (stereo not shown) [Compound 52, 3-((6-(tert-Butyl)-2-(methyl(1-methylpyrrolidin-3-yl)amino)thieno[3,2-d]pyrimidin-4-yl)(methyl)amino)propanenitrile] | >40 µM | – | –
16 | CN(C)CCCN(C)c1nc(N(C)CCC(N)=O)c2sccc2n1 [Compound 36] | >50 µM | – | –
17 | CN1CCC(N(C)c2nc(N(C)CCC#N)c3ccccc3n2)CC1 [Compound 3, 3-(Methyl(2-(methyl(1-methylpiperidin-4-yl)amino)quinazolin-4-yl)amino)propanenitrile] | >100 µM | 1.04 | –
18 | CN(CCC#N)c1nc(N(C)C2CCNCC2)nc2ccccc12 [Compound 23, 3-(Methyl(2-(methyl(piperidin-4-yl)amino)quinazolin-4-yl)amino)propanenitrile] | >50 µM | – | –
19 | CN1CCC(N(CCCO)c2nc(N(C)CCC#N)c3ccccc3n2)CC1 [Compound 30, 3-((2-((3-Hydroxypropyl)(1-methylpiperidin-4-yl)amino)quinazolin-4-yl)(methyl)amino)propanenitrile] | – | – | IC50 (LmNMT): 19 µM and 18.8 µM
20 | CN1CCC(N(C)c2nc(N(C)CCC#N)c3sccc3n2)CC1 [Compound 1, 3-(Methyl(2-(methyl(1-methylpiperidin-4-yl)amino)thieno[3,2-d]pyrimidin-4-yl)amino)propanenitrile] | >100 µM | 1.07 | effect on myristoylation [2]: significantly decreased myristoylation in a dose-dependent manner
21 | CCN(C)c1nc(N(C)C2CCNCC2)nc2ccsc12 [Compound 47, N^4-Ethyl-N^2,N^4-dimethyl-N^2-(piperidin-4-yl)thieno[3,2-d]pyrimidine-2,4-diamine] | >50 µM | – | –
22 | CN(CCC#N)c1nc(N(C)C2CCNCC2)nc2ccsc12 [Compound 10, 3-(Methyl(2-(methyl(piperidin-4-yl)amino)thieno[3,2-d]pyrimidin-4-yl)amino)propanenitrile] | >50 µM | 1.05 | –
23 | CN(C)CCCN(C)c1nc(N(C)CCCO)c2sccc2n1 [Compound 35, 3-((2-((3-(Dimethylamino)propyl)(methyl)amino)thieno[3,2-d]pyrimidin-4-yl)(methyl)amino)propan-1-ol] | >50 µM | – | –
24 | CCN(C)c1nc(N(C)C2CCNCC2)nc2ccc(S(=O)(=O)Nc3c(C)nn(C)c3C)cc12 [Compound 65, 4-(Ethyl(methyl)amino)-2-(methyl(piperidin-4-yl)amino)-N-(1,3,5-trimethyl-1H-pyrazol-4-yl)quinazoline-6-sulfonamide] | – | – | IC50 (LdNMT; CPM Assay, IC50 (CI95) LdNMT): 0.33 µM
25 | CN1CCC(N(C)c2nc(N3CCC[C@H]3CC#N)c3sccc3n2)CC1 [Compound 43, (S)-2-(1-(2-(Methyl(1-methylpiperidin-4-yl)amino)thieno[3,2-d]pyrimidin-4-yl)pyrrolidin-2-yl)acetonitrile] | >50 µM | 1.08 | –
